Values quoted from earlier work as cited in US10466148B2, “Use of platinum wire electrode and synthetic fiber for flow assisted electro-enhanced solid phase microextraction” (KING FAHD UNIVERSITY OF PETROLEUM AND MINERALS, priority 2015, dated 2019).

Legend:
[1] = not given; remark: listed apart in the source
[2] = not given; remark: listed apart in the source
[3] = not given; remark: listed apart in the source

| Compound | Vapor pressure at 20-25° C. [mmHg] | Diffusion coefficient in air [1] [cm^2 s^−1] | Diffusion coefficient in water [2] [cm^2 s^−1] | Henry's law constant at 20° C. [3] |
| --- | --- | --- | --- | --- |
| Brc1ccc(Oc2ccccc2)cc1 [BPPE, 4-bromophenyl phenyl ether] | 0.0005 | 0.047 | 6.27E−06 | 0.009 |
| Clc1ccc(Oc2ccccc2)cc1 [CPPE, 4-chlorophenyl phenyl ether] | 0.0016 | 0.048 | 6.18E−06 | 0.012 |
